From paper PMC11392399, “The final walk with preptin” (PLOS ONE, 2024)

How the values were obtained:
hBMSC-TERT [1] = experiment: Osteoblast differentiation of hBMSC-TERT, alkaline phosphatase (ALP) activity assay; format: cell-based, human; settings: summary in the conclusions
Description: (§1) hBMSC-TERT were plated at a density of 20 000 cells/cm^2 (Alizarin Red S staining) and 5 000 cells/well (ALP activity assay) in MEM medium (Gibco), supplemented with 10 % FBS (Gibco) and 1 % P/S (Gibco). One day after seeding, the medium was replaced with OB induction medium, composed of basal medium, supplemented with 10 mM B-glycerophosphate (Sigma-Aldrich), 10 nM dexamethasone (Sigma-Aldrich), 50 μg/mL vitamin C (Sigma-Aldrich), 10 nM vitamin D3 (Sigma-Aldrich) and treated with 100 ng/ml, 500 ng/ml and 1 ug/ml IGF2, IGF1, IGF2, preptin or vehicle (acetic acid) as a control. The medium was changed every other day for 7 days (ALP activity assay) or 10 days (Alizarin Red S staining).
ALP activity and cell viability assay were quantified at Day 7 of OB differentiation, in order to normalize the ALP activity data to the number of viable cells.
Cell viability assay was measured using a Cell Titer-Blue Assay Reagent (Promega) at fluorescence intensity (579Ex/584Em). ALP activity was detected by absorbance at 405 nm, using p-nitrophenyl phosphate (Sigma-Aldrich) as substrate.

hBMSC-TERT [2] = experiment: Osteoblast differentiation of hBMSC-TERT, Alizarin Red S staining; format: cell-based, human; settings: increasing concentrations; day 10 of OB differentiation; compared to effects of IGF2 and preptin
Description: as §1
Mineralized matrix formation at Day 10 of OB differentiation was measured, using Alizarin Red S staining. Cells were fixed with 70 % ice-cold ethanol for 1 h at -20°C, before addition of Alizarin Red S Solution (AR-S) (Sigma-Aldrich). The cells were stained for 10 min at room temperature (RT). Excess dye was washed with distilled water and with phosphate buffered saline (PBS) (Gibco) to reduce nonspecific AR-S stain.

[3] = test system: human primary osteoblasts; settings: 8 days, ref [17] Bosetti et al.; cited from earlier work
[4] = test system: MIN6 pancreatic beta cells; experiment: Stimulation of insulin secretion, radioimmunoassay; format: cell-based, mouse; settings: basal glucose 10 mmol/l, various, very high concentrations of preptin, 1 h at 37°C, RIA
Description: MIN6 cells were seeded at a density of 100 000 cells/well in 24-well culture dishes and grown for 3 days in 1 ml of complete medium. Before experiments, cells were maintained for 2 h in a glucose-free medium. Thereafter, the cells were washed twice and preincubated for 2 h at 37°C in 0.4 ml glucose-free Krebs-Ringer bicarbonate HEPES (KRBH) buffer of the following composition: 120 mM NaCl, 4.6 mM KCl, 2 mM CaCl2, 5 mM NaHCO3, 1 mM MgSO4, 0.4 mM KH2PO4, 0.15 mM Na2HPO4, BSA (0.2 % w/v), and 20 mM HEPES with pH value adjusted to 7.4 with NaOH. Next, the buffer was removed from cells and a new portion of 0.4 ml of glucose-free KRBH buffer, but with a respective concentration of glucose and/or preptin, was added to the cells, which were incubated for 1 h at 37°C. The cells were stimulated with various concentrations of D-glucose (0 and 10 mM) and the effects of various concentrations of mouse preptin were determined for 10 mM D-glucose concentration. After the stimulation, supernatants were collected from the cells and stored at −80°C before the measurement of insulin concentration.
Radioimmunoassay (RIA) kits for the measurement of rat insulin (sensitive Rat Insulin RIA Kit, Cat. # SRI-13K) content in samples were provided by EMD Millipore Corporation and were used according to the manufacturer’s instructions. Each biological sample was measured in duplicate.

[5] = test system: intracellular calcium in U-2 OS osteoblasts; experiment: Changes in intracellular calcium, U-2 OS osteoblasts; format: cell-based, human; settings: U-2 OS cells; 10^−4 M; Fluo-8 fluorescence, (Fmax−F0)/F0; one-way ANOVA
Description: The day before the experiment, U-2 OS, MC3T3-E1, MIN6 and cAMP-HEK cells were seeded 6 000 (for osteoblastic cell lines U-2 OS, MC3T3-E1), 10 000 (for cAMP-HEK cells) or 30 000 (MIN6) cells per well in a black 384-well format micro plate with transparent bottom (Cat.#: 142761, Nunc, Thermo Fisher Scientific, USA). On the next day, the cultivation media was exchanged for assay buffer, consisting of HBSS (Cat.#: H6648-500ML, Sigma-Aldrich, Merck, Germany), 20 mM HEPES (Cat.#: L0180-100, Biowest, France), 2.5 mM Probenecid (Cat.#: P8761, Sigma-Aldrich, Merck, Germany), adjusted for pH 7.4 and supplemented with 4.77 μM CalciFluor™ Fluo-8, AM (Cat.#: 1345980-40-6, Santa Cruz Biotechnology, USA). After 45 min incubation with assay buffer in 37°C and 5% CO2, the cells were incubated at RT in a dark place for another 15 minutes. After this time, preptin and its analogs were added by the Agilent Bravo Automated Liquid Handling Platform (Agilent Technologies, USA). The kinetics were measured by the Spark® multimode reader from Tecan (Tecan Group Ltd., Switzerland) for 10 min (approximately 45 cycles, excitation 485 nm, emission 535 nm, band width 10 nm). Before each kinetics, the background fluorescence (F0) was measured and the result was calculated as (Fmax−F0)/F0, where Fmax corresponds to the maximum response upon stimulation by the compounds. Each compound was tested in concentration 10^−4 M.

[6] = test system: mouse β-cell line βTC6-F7; settings: permanent mouse β-cell line βTC6-F7; ref [8] Buchanan et al.; cited from earlier work
From the text: Cheng et al. observed an increase in insulin secretion at a glucose concentration of 25 mmol/l and Buchanan et al. used 10 mmol/l.

IGF1: insulin-like growth factor 1, comparator hormone
osteoblast differentiation of hBMSCs (hBMSC-TERT [1]): only significant changes observed for IGF1
Alizarin S staining of calcified matrix (hBMSC-TERT [2]): largest changes
change in ALP activity [3]: only significant change in ALP activity

DVSTSQAVLPDDFPRYPVGKFFQYDTWRQSAGRL [peptide 14, native mouse preptin]
stimulation of insulin secretion [4]: did not observe a significant increase in insulin secretion

DVSTSQAVLPDDFPRYPVGKFFKFDTWRQSAGRL [peptide 19, native rat preptin]
changes in intracellular calcium relative to non-stimulated cells [5]: significant increase in intracellular calcium levels
increase of insulin secretion [6]: able to increase insulin secretion
